The record followed here is patent publication US10335374B2, “Tablet composition for anti-tuberculosis antibiotics” (priority 2014, dated 2019).

Values after ≈ are worked out from the molar mass of the structure shown.

Holding throughout (assay): microbe, parasite or virus in culture
Common to all, as to type: cell-based, M. tuberculosis

For test [1], the system named is FQ-R1 (fluoroquinolone resistant). The conditions noted are these: Mycobacterium tuberculosis.
For test [2], the system named is RIF-R2 (rifampicin resistant). Particulars: Mycobacterium tuberculosis.
The test system of test [3] is RIF-R1 (rifampicin resistant). Particulars: Mycobacterium tuberculosis.
Test [4] has as its system INH-R1 (isoniazid resistant).
In test [5] the test system is INH-R2 (isoniazid resistant).
Test [6] deals with rifampin-resistant strain. Particulars: Mycobacterium tuberculosis.
Test [7] relates to ofloxacin-resistant strain. Particulars: Mycobacterium tuberculosis.
For test [8], the system named is isoniazid-resistant strain. The conditions noted are these: Mycobacterium tuberculosis.

`CO[C@H]1/C=C/O[C@@]2(C)Oc3c(C)c(O)c4c(O)c(c(/C=N/N5CCN(C)CC5)c(O)c4c3C2=O)NC(=O)/C(C)=C\C=C\[C@H](C)[C@H](O)[C@@H](C)[C@@H](O)[C@@H](C)[C@H](OC(C)=O)[C@@H]1C` [rifampicin]: the MIC is 0.017 µM (≈ 0.014 µg/mL) in test [1]; greater than 200 µM in test [2]; 12.4 µM (≈ 10.2 µg/mL) in test [3]; 0.02 µM (≈ 0.0165 µg/mL) in test [4] (Mycobacterium tuberculosis); 0.0075 µM (≈ 0.00617 µg/mL) in test [5] (Mycobacterium tuberculosis).
Take `NCC[C@H](O)C(=O)N[C@@H]1C[C@H](N)[C@@H](O[C@H]2O[C@H](CN)[C@@H](O)[C@H](O)[C@H]2O)[C@H](O)[C@H]1O[C@H]1O[C@H](CO)[C@@H](O)[C@H](N)[C@H]1O` [amikacin]: the MIC in test [6] was found to be 0.256 µM (≈ 0.15 µg/mL); in test [7], 0.256 µM (≈ 0.15 µg/mL); in test [8] it was 2.05 µM (≈ 1.2 µg/mL).
Regarding `NNC(=O)c1ccncc1` [Isoniazid (INH), isoniazid], the MIC in test [4] (Mycobacterium tuberculosis) was greater than 200 µM; in test [4] (Resistant Isolate INH-R1, isoniazid-sucrose series), greater than 200 µM; in test [5] (Mycobacterium tuberculosis), greater than 200 µM; in test [5] (Resistant Isolate INH-R2, isoniazid-sucrose series), greater than 200 µM.
